The results in this text go back to patent US20230149561A1, “Functionalized Nanoparticles and Their Use in Treating Bacterial Infections” (The Board of Trustees of the Leland Stanford Junior …, priority 2019, published 2023).

≈ marks a conversion by molar mass, not a printed value.

Test [1] has as its system Klebsiella pneumoniae CDC 0044. The test can be described thus: MIC and MBC against Meropenem-resistant Klebsiella. The format is cell-based. The conditions noted are these: Meropenem-resistant strain, before combination.
The test system of test [2] is stationary phase planktonic PA. Briefly: Killing of stationary phase planktonic PA. The format is cell-based, Pseudomonas aeruginosa. The conditions noted are these: 24 hr treatment, AuNC@CPP (16000 μg/mL), OFL (750 μg/mL).
A further test relates to PA01. Briefly: Minimum inhibitory concentration against PA01. The format is cell-based. The conditions noted are these: Pseudomonas aeruginosa.
In test [3] the test system is P. aeruginosa clinical otopathogenic strain (PA CSOM) biofilm. Briefly: MBEC Assay biofilm eradication, 48 h old PA CSOM biofilm. Particulars: 24 h treatment. The test is classed as cell-based, Pseudomonas aeruginosa. The protocol:
(§1) (1-2) Bacteria culture is prepared and dispensed into a 96-well microplate. (3) The peg lid is placed in the bacteria culture and incubated to generate the biofilm. (4) The peg lid is gently rinsed to removed planktonic bacteria and a serial diluted test solution is dispensed into a new 96-well microplate. (5) The pegs covered in biofilm are incubated in the test solutions. (6) The peg lid is again gently rinsed to remove planktonic bacteria and placed in a new 96-well microplate containing recovery media. The peg lid is then sonicated to dislodge the biofilm into the recovery media. (7) Following sonication, the peg lid is replaced with a regular 96-well microplate lid and the plate containing recovery media is incubated. Following incubation, the OD650 absorbance is read on a spectrophotometer. Wells with an OD650 of less than 0.1 is evidence of biofilm eradication. (8) Spot plated on LB agar plates is use to confirm biofilm eradication.
(§2) Then, the minimum biofilm eradication concentration (MBEC) of FLOXIN®Otic against 48 h old PA01 and PA CSOM biofilms were determined using the commercially available MBEC Assay® (Innovotech Inc. Edmonton, Canada). […] Although PA CSOM produced quantitatively less biofilms than PAO1, it had the highest tolerance to ofloxacin. […]

The subject of another test is PA01 logarithmic culture. Briefly: Persistence assay, PA01. The format is cell-based, Pseudomonas aeruginosa. The conditions noted are these: ofloxacin 100 μg/mL, 24 h. Here is the method:
(§3) FIGS. 2A-2B: Increasing the fraction of persister cells promotes biofilm tolerance to ofloxacin. FIG. 2A) Susceptibility of surviving persister cells in logarithmic-phase culture. […] Data are presented as mean±s.d. (n=3). FIG. 2B) Comparison of persister cell fraction between PAO1 and PA CSOM in logarithmic-phase culture. Cells of logarithmic-phase were treated with ofloxacin ([…]) for 24 h and then plated for colony counting. The persister fraction was calculated as the ratio between the number of surviving bacteria after ofloxacin treatment compared to that measured in the corresponding untreated control (PBS). Data are presented as mean±s.d. (n=3). Statistical comparisons were done using a two-tailed t-test as indicated. ****p≤0.0001 and **p≤0.01.
(§4) PA01 and PA CSOM cultures were incubated at 37° C. with shaking. 1 mL of culture from each strain was aliquoted when reaching an OD600 of 0.3. Cultures were gently rinsed to remove LB medium and replaced with 1 mL of PBS. Ofloxacin (100 μg/mL) was added to the culture flasks (except for the control flasks). After 24 h incubation, ofloxacin was removed and the number of colony-forming units per milliliter (CFU/mL) was determined. […] The fraction of persister cells was calculated as the ratio of the CFU/mL after ofloxacin treatment to the CFU/mL of the control flasks.

For test [4], the system named is PA CSOM logarithmic culture. The test can be described thus: Persistence assay, PA CSOM. The format is cell-based, Pseudomonas aeruginosa. The conditions noted are these: ofloxacin 100 μg/mL, 24 h. Here is the method: as §3, §4
Test [5] has as its system PA01 (chromosomally encoded luminescent) biofilm. The test is classed as cell-based, Pseudomonas aeruginosa. The conditions noted are these: 10-day-old PA01 biofilm, 24 hr treatment. The protocol: Biofilms of PA01 (10-day-old) were grown in the commercially available Calgary Biofilm Device (a 96-well plate)/minimum biofilm eradication concentration (MBEC) assay plate (46). […] Wells were washed with PBS and biofilms were disrupted with sonication and incubated in recovery media for turbidity measurements. A well was considered to have biofilm eradicated if the optical density at 650 nm (OD650) was less than 0.1 after 24 hours.

Test [6] concerns P. aeruginosa wild-type PA01 biofilm. Briefly: MBEC Assay biofilm eradication, 48 h old PA01 biofilm. The test is classed as cell-based, Pseudomonas aeruginosa. The conditions noted are these: 24 h treatment. The protocol:
as §1, §2

For test [7], the system named is PA CSOM surviving persister cells, logarithmic-phase culture. Briefly: Ofloxacin sensitivity of resuscitated persister cells in logarithmic-phase culture. The conditions noted are these: ofloxacin 100 μg/mL, 24 h. The test is classed as cell-based, Pseudomonas aeruginosa. Here is the method: FIG. 8: Cartoon depicting the flowchart to evaluate ofloxacin sensitivity to persister cells resuscitation in logarithmic-phase culture. (1) Surviving persister cells following the treatment of PA CSOM biofilm with ofloxacin at 3000 μg/mL were replaced in fresh media and incubated at 37° C. and were aerated at 225 r.p.m. (2) Cells in logarithmic-phase (OD600=0.3) were treated with either phosphate-buffered saline (PBS) or ofloxacin (100 μg/mL) for 24 h. (3) following the treatment, cells were plated to determine the number of bacteria per milliliter (CFU/mL).
The drug-refractory state associated with PA CSOM biofilm formation is mediated by tolerance rather than resistance to the antibiotic.

For another test, the system named is PA CSOM. The test can be described thus: Minimum inhibitory concentration against PA CSOM. The format is cell-based. The conditions noted are these: Pseudomonas aeruginosa.
A further test has as its system biofilm. The test can be described thus: Biofilm eradication by cell-penetrating peptide alone. The conditions noted are these: CPP alone, spot plated on LB agar. The test is classed as cell-based. The source says: FIG. 20: Cell-penetrating peptide alone cannot eradicate the biofilm; the entire entity of AuNCs was required for biofilm eradication. […] Each spot represents an independent experiment (n=3).

The MBC is the smallest concentration meeting the test's criterion for killing. As for `C[C@@H](O)[C@H]1C(=O)N2C(C(=O)O)=C(S[C@@H]3CN[C@H](C(=O)N(C)C)C3)[C@H](C)[C@H]12` [Meropenem], the minimal bactericidal concentration (MBC) in [1] is above 200 µg/mL.

What is called MIC is the smallest concentration in the dilution series that meets the test's criterion for growth inhibition. A lower MIC goes with inhibition by little substance. On to `CC1COc2c(N3CCN(C)CC3)c(F)cc3c(=O)c(C(=O)O)cn1c23` (centres unmarked) [ofloxacin], for which the “remaining CFU” value in test [2] is 10^3. Further, the MIC was in the range of 1.6 to 3.3 µg/mL (≈ 4.43 to 9.13 µM) against PA01 and 52.5 to 100 µg/mL (≈ 145 to 277 µM) against PA CSOM. Moreover, the “minimum biofilm eradication concentration (MBEC)” value in [3] is above 3000 µg/mL; in test [6], 750 µg/mL. Moreover, the “fraction of persister cells of total bacteria population” value in the test with PA01 logarithmic culture came out at 0.0005%. Moreover, the “fraction of persister cells” value in test [4] came out at 0.07%. In addition, the MBEC in test [5] was 750 µg/mL. The “decrease in number of bacteria per milliliter (CFU/mL)” value in test [7] amounted to 3 log 10.

As to “Ac-(YGRKKRRQRRR SEQ ID NO:7)-(β-Ala)-(β-Ala)-(β-Ala)-Cys-CONH2 (N-acetyl, three beta-Ala, Cys amide; TAT cell-penetrating peptide) [CPP, cell-penetrating peptide alone, component of AuNC@CPP]”, the “concentration without any biofilm eradication” value in the test on biofilm was above 4000 µg/mL.
